Measurements: paper PMC2358886, “Evolution of pharmacologic specificity in the pregnane X receptor” (BMC Evolutionary Biology, 2008)
Read-outs that look alike come from different tables or passages of the source.

Key:
[1] = molecular target: T1, zebrafish PXR (Danio rerio, UniProt A5WYG8)
T1 sequence (A5WYG8 144-430): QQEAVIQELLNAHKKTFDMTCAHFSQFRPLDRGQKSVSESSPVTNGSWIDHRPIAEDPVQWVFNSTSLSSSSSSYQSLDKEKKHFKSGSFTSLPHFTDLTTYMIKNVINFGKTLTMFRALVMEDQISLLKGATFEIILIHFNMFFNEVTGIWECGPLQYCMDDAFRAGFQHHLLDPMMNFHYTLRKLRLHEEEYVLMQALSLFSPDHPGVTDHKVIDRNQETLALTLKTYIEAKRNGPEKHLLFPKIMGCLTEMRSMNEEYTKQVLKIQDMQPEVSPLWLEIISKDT

[2] = system: HepG2 cells
[3] = molecular target: T2, human PXR (Homo sapiens, UniProt O75469); assay: PXR activation luciferase reporter assay, human PXR in HepG2-NTCP cells
T2 sequence (O75469 1-434): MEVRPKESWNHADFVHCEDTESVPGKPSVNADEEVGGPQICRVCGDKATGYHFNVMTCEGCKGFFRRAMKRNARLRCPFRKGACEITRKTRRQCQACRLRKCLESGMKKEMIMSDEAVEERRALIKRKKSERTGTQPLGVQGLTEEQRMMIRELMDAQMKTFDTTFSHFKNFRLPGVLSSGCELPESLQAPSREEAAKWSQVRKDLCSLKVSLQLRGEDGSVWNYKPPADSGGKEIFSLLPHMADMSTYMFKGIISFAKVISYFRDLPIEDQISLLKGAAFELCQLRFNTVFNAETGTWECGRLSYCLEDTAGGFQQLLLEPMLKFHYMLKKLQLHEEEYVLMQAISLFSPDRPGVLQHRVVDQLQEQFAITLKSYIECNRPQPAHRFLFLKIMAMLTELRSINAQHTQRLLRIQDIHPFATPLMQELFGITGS

[4] = -log(EC50), EC50 in molar units, activation of zebrafish PXR
[5] = -log(EC50), EC50 in molar units, activation of human PXR
[6] = Human PXR EC50 (concentration class, Figure 2A), class read from box colour against the key of Figure 2
[7] = hPXR Activity, -log(EC50), EC50 in molar units, activation of human PXR

SMILES | zfPXR Activity [1, 4] | Toxicity [2] | Toxicity ([2]; human, 24 hr) [µM] | other results
CC(=O)O[C@@H]1CC[C@@]2(C)[C@H](CC[C@@H]3[C@@H]2CC[C@]2(C)[C@@H]([C@H](C)CCC(=O)O)CC[C@@H]32)C1 [BI49, 5β-Cholanic acid-3α-acetate] | 5.89 | None | – | hPXR Activity [3, 5]: 5.92; hPXR Efficacy ([3]; relative to 10 μM rifampicin, assigned an efficacy of 1.0): 0.54
Nc1nc2ncc(CNc3ccc(C(=O)N[C@@H](CCC(=O)O)C(=O)O)cc3)nc2c(=O)[nH]1 [MI16, Folic acid] | – | None | – | zfPXR Activity [1]: None
C[C@]12CCC(=O)C=C1CC[C@@H]1[C@@H]2CC[C@@]2(C)[C@H]1CC[C@]2(O)C(=O)CO [PR4, 4-Pregnen-17,21-diol-3,20-dione] | None | None | – | EC50 [3, 6]: 11 to 50 µM; EC50 [3, 7]: 22.9 µM
CCOP(=O)(OCC)C(=Cc1cc(C(C)(C)C)c(O)c(C(C)(C)C)c1)P(=O)(OCC)OCC [MI33, SR12813] | None | 10 µM | – | –
COC(=O)CC[C@@H](C)[C@H]1CC[C@H]2[C@@H]3CC[C@@H]4C[C@H](OC(C)=O)CC[C@]4(C)[C@H]3CC[C@]12C [BI50, 5β-Cholanic acid-3α-acetate methyl ester] | None | None | – | hPXR Activity [3, 5]: 5.96
C=C1/C(=C\C=C2/CCC[C@]3(C)[C@@H]([C@H](C)CCCC(C)C)CC[C@@H]23)C[C@@H](O)C[C@@H]1O [MI43, 1α-Hydroxyvitamin D3] | None | – | 50 | –
C=C1/C(=C\C=C2/CCC[C@]3(C)[C@@H]([C@H](C)CCCC(C)(C)O)CC[C@@H]23)C[C@@H](O)C[C@@H]1O [MI41, 1α,25-Dihydroxyvitamin D3] | – | – | 50 | –
Cc1c(C)c2c(c(C)c1O)CC[C@@](C)(CCC[C@H](C)CCC[C@H](C)CCCC(C)C)O2 [MI37, α-Tocopherol] | – | – | 100 | zfPXR Activity [1]: None; EC50 [3, 7]: ~50.1 µM
C[C@]12CC[C@@H]3c4ccc(OC5O[C@H](C(=O)O)[C@@H](O)[C@H](O)[C@H]5O)cc4CC[C@H]3[C@@H]1CC[C@@H]2O (stereo partly drawn) [ES9, 1,3,5(10)-Estratrien-17β-ol-3-glucosiduronate] | None | None | – | hPXR Activity [3, 5]: None
CCOC(=O)c1ccccc1N [MI14, Ethyl-2-aminobenzoate] | None | – | – | hPXR Activity [3, 5]: None
COC(=O)[C@H]1[C@H]2C[C@@H]3c4[nH]c5cc(OC)ccc5c4CCN3C[C@H]2C[C@@H](OC(=O)c2cc(OC)c(OC)c(OC)c2)[C@@H]1OC [MI30, Reserpine] | – | – | 50 | –
CC1=C(/C=C/C(C)=C/C=C/C(C)=C/C=C/C=C(C)/C=C/C=C(C)/C=C/C2=C(C)CCCC2(C)C)C(C)(C)CCC1 [MI9, β-Carotene] | None | – | 100 | EC50 [3, 7]: 3.47 µM
CC(=O)[C@H]1CC[C@H]2[C@@H]3CCC4=CC(=O)CC[C@]4(C)[C@H]3CC[C@]12C [PR7, 4-Pregnen-3,20-dione] | None | – | 200 | EC50 [3, 6]: 11 to 50 µM; EC50 [3, 7]: 14.8 µM
CC(=O)Nc1ccc(O)cc1 [MI1, Acetaminophen] | – | None | – | –
CC(=O)[C@@]1(O)CC[C@H]2[C@@H]3CCC4=CC(=O)CC[C@]4(C)[C@H]3CC[C@@]21C [PR8, 4-Pregnen-17-ol-3,20-dione] | – | – | – | Toxicity ([2]; human): None
C[C@]12CC[C@@H]3c4ccc(O)cc4CC[C@H]3[C@@H]1CCC2=O [ES2, 1,3,5(10)-Estratrien-3-ol-17-one] | – | – | 200 | –
CO[C@H]1/C=C/O[C@@]2(C)Oc3c(C)c(O)c4c(O)c(c(/C=N/N5CCN(C)CC5)c(O)c4c3C2=O)NC(=O)/C(C)=C\C=C\[C@H](C)[C@H](O)[C@@H](C)[C@@H](O)[C@@H](C)[C@H](OC(C)=O)[C@@H]1C [MI32, Rifampicin] | None | – | 200 | –
C/C=C1\C(=O)C[C@H]2[C@@H]3CCC4=CC(=O)CC[C@]4(C)[C@H]3CC[C@]12C [MI17, Guggulsterone] | – | None | – | zfPXR Activity [1]: None
